Measurements: patent publication EP1660440B1, “ACYLOXYALKYL CARBAMATE PRODRUGS, METHODS OF SYNTHESIS AND USE” (priority 2003, dated 2005)
Read-outs that look alike come from different tables or passages of the source.

Experiments:
[1] = human, plasma, 1 h, 2 µM
Experimental: (§1) The stabilities of prodrugs were evaluated in one or more in vitro systems using a variety of tissue preparations following methods known in the art. The chemical stability of prodrugs in aqueous buffers at pH's of 2.0, 7.4 and 8.0 were also measured. […] Each preparation was incubated with test compound at 37°C for one hour. Aliquots (50 µL) were removed at 0, 30, and 60 min and quenched with 0.1 % trifluoroacetic acid in acetonitrile.

Pancreatin = Pancreatin stability; format: in vitro ADME, porcine; conditions: 1 % (w/v) pancreatin, 5 µM, pH 7.5, 37 °C, after 60 min
Experimental: Pancreatin Stability: Stability studies were conducted by incubating prodrug (5 µM) with 1 % (w/v) pancreatin (Sigma, P-1625, from porcine pancreas) in 0.025 M Tris buffer containing 0.5 M NaCl (pH 7.5) at 37 °C for 60 min. The reaction was stopped by addition of 2 volumes of methanol. After centrifugation at 14,000 rpm for 10 min, the supernatant was removed and analyzed by LC/MS/MS.

[2] = aqueous buffer, 1 h
Experimental: as §1

[3] = rat, s9, 1 h, 2 µM
Experimental: as §1

[4] = human, s9, 1 h, 5 µM
Experimental: For stability studies, prodrug (5 µM) was incubated in Caco-2 homogenate S9 fraction (0.5 mg protein per mL) for 60 min at 37°C. Concentrations of intact prodrug and released baclofen were determined at zero time and 60 minutes using LC/MS/MS.

[5] = rat, plasma, 1 h, 2 µM
Experimental: as §1

[6] = human, s9, 1 h, 2 µM
Experimental: as §1

Row | Compound | % of Baclofen Released [1] [%] | % of Prodrug Remaining [1] [%] | % of Baclofen Released (Pancreatin) [%] | % of Prodrug Remaining (Pancreatin) [%] | % of Baclofen Released ([2]; pH 2) [%] | % of Prodrug Remaining ([2]; pH 2) [%] | % of Baclofen Released ([2]; pH 7.4) [%] | % of Prodrug Remaining ([2]; pH 7.4) [%] | % of Baclofen Released ([2]; pH 8) [%] | % of Prodrug Remaining ([2]; pH 8) [%] | % of Baclofen Released [3] [%] | % of Prodrug Remaining [3] [%] | % of Baclofen Released [4] [%] | % of Prodrug Remaining [4] [%] | % of Baclofen Released [5] [%] | % of Prodrug Remaining [5] [%] | % of Baclofen Released [6] [%] | % of Prodrug Remaining [6] [%]
1 | CC(=O)OC(OC(=O)NC[C@H](CC(=O)[O-])c1ccc(Cl)cc1)C(C)C.[Na+] (stereo partly drawn) [(23), Sodium 4-[(1-Acetoxylsobutoxy)carbonylamino]1-(3R)-(4-chlorophenyl)-butanoate] | 3 | 96 | 24 | 82 | 0 | 107 | 1 | 89 | 2 | 90 | 107 | 3 | 87 | 15 | 93 | 11 | 105 | 4
2 | CC(C)C(=O)OC(OC(=O)NC[C@H](CC(=O)[O-])c1ccc(Cl)cc1)C(C)C.[Na+] (stereo partly drawn) [(25), Sodium 4-[(1-Isobutanoyloxyisobutoxy)carbonylamino]-(3R)-(4-chlorophenyl)-butanoate] | 4 | 93 | 84 | 22 | 0 | 101 | 0 | 100 | 0 | 100 | 98 | 1 | 95 | 2 | 96 | 5 | 91 | 4
3 | CC(OC(=O)NC[C@H](CC(=O)[O-])c1ccc(Cl)cc1)OC(=O)C(C)C.[Na+] (stereo partly drawn) [(33), Sodium 4-[(1-Isobutanoyloxyethoxy)carbonylamino]-(3R)-(4-chlorophenyl)-butanoate] | 4 | 96 | 52 | 46 | 0 | 100 | 0 | 72 | 0 | 101 | 101 | 4 | 95 | 3 | 30 | 73 | 101 | 3
4 | CC(C)C(=O)O[C@H](C)OC(=O)NC[C@H](CC(=O)[O-])c1ccc(Cl)cc1.[Na+] [(34), Sodium 4-{[(1S)-Isobutanoyloxyethoxy]-carbonylamino}-(3R)-(4-chlorophenyl) -butanoate] | 2 | 90 | 18 | 81 | 0 | 100 | 0 | 100 | 0 | 100 | 100 | 1 | 100 | 2 | 18 | 78 | 100 | 3
5 | O=C([O-])C[C@@H](CNC(=O)OCOC(=O)c1cccs1)c1ccc(Cl)cc1.[Na+] [(57), Sodium 4-[(2-Thienylcarbonyloxymethoxy)carbonylamino]-(3R)-(4-chlorophenyl)-butan oate] | 14 | 73 | 75 | 12 | 0 | 100 | 0 | 100 | 0 | 100 | 78 | 2 | 104 | 2 | 10 | 82 | 86 | 1
6 | CC(C)CC(=O)OCOC(=O)NC[C@H](CC(=O)[O-])c1ccc(Cl)cc1.[Na+] [(59), Sodium 4-[(3-Methylbutanoyloxymethoxy)carbonylamino]-(3R)-(4-chlorophenyl)-butano ate] | 11 | 77 | 50 | 46 | 0 | 103 | 1 | 103 | 2 | 97 | 85 | 2 | 104 | 3 | 85 | 2 | 82 | 1
7 | CC(C)C(=O)OC(OC(=O)NC[C@H](CC(=O)[O-])c1ccc(Cl)cc1)C1CCCCC1.[Na+] (stereo partly drawn) [(84), Sodium 4-[(1-Isobutanoyloxy-1-cyclohexylmethoxy)carbonylamino]-(3R)-(4-chlorophenyl)-butanoate] | 4 | 89 | 40 | 47 | 0 | 85 | 0 | 84 | 1 | 94 | 91 | 4 | 76 | 13 | 11 | 91 | 82 | 2
8 | CCCC(=O)OC(OC(=O)NC[C@H](CC(=O)[O-])c1ccc(Cl)cc1)C1CCCCC1.[Na+] (stereo partly drawn) [(85), Sodium 4-[(1-Butanoyloxy-1-cyclohexylmethoxy)carbonylamino]-(3R)-(4-chlorophenyl)-butanoate] | 4 | 95 | 64 | 15 | 0 | 82 | 0 | 92 | 0 | 93 | 91 | 2 | 82 | 4 | 12 | 82 | 84 | 2
9 | CCC[C@H](OC(=O)NC[C@H](CC(=O)[O-])c1ccc(Cl)cc1)OC(=O)C(C)C.[Na+] [(91), Sodium 4-{[(1S)-Isobutanoyloxybutoxy]carbonylamino}-(3R)-(4-chlorophenyl)-butanoate] | 2 | 83 | 78 | 11 | 0 | 100 | 0 | 97 | 1 | 94 | 70 | 22 | 107 | 6 | 10 | 80 | 78 | 1
10 | CC(C)C(=O)O[C@H](OC(=O)NC[C@H](CC(=O)[O-])c1ccc(Cl)cc1)C(C)C.[Na+] [(100), Sodium 4-{[(1R)-Isobutanoyloxyisobutoxy]carbonylamino}-(3R)-(4-chlorophenyl) -butanoate] | 3 | 89 | 27 | 68 | 0 | 101 | 0 | 98 | 0 | 95 | 85 | 3 | 90 | 7 | 64 | 9 | 83 | 1
